For one data set, the target named is VZV polymerase (Varicella-zoster virus, UniProt P09252). Kind of data set: VZV polymerase assay (Table 1). The class given is biochemical. The settings on record: VZV polymerase; read-out: Polymerase IC50 VZV.
A further data set addresses T1, HCMV polymerase (Human cytomegalovirus, UniProt P08546).
T1 construct: made in house; host or cells: recombinant baculovirus-infected SF-9 cells
Kind of data set: HCMV polymerase scintillation proximity assay (SPA). The class given is biochemical. As for the experimental part: The HCMV polymerase assay is performed using a scintillation proximity assay (SPA) as described in several references, such as N. D. Cook, et al., Pharmaceutical Manufacturing International, pages 49-53 (1992); KY Takeuchi, Laboratory Practice, September issue (1992); U.S. Pat. No. 4,568,649 (1986); which are incorporated by reference herein. Reactions are performed in 96-well plates. The assay is conducted in 100 yl volume with 5.4 mM HEPES (pH 7.5), 11.7 mM KCl, 4.5 mM MgCl2, 0.36 mg/ml BSA, and 90 nM ^3H-dTTP. Assays are run with and without CHAPS, (3-[(3-Cholamidopropyl)-dimethylammonio]-1-propane-sulfonate) at a final concentration of 2 mM. HCMV polymerase is diluted in enzyme dilution buffer containing 50% glycerol, 250 mM NaCl, 10 mM HEPES (pH 7.5), 100 μg/ml BSA, and 0.01% sodium azide. The HCMV polymerase, which is expressed in recombinant baculovirus-infected SF-9 cells and purified according to literature procedures, is added at 10% (or 10 μl) of the final reaction volume, i.e., 100 μl. Compounds are diluted in 50% DMSO and 10 μl are added to each well. Control wells contain an equivalent concentration of DMSO. Unless noted otherwise, reactions are initiated via the addition of 6 nM biotinylated poly(dA)-oligo(dT) template/primer to reaction mixtures containing the enzyme, substrate, and compounds of interest. Plates are incubated in a 25° C. or 37° C. H2O bath and terminated via the addition of 40 μl/reaction of 0.5 M EDTA (pH 8) per well. Reactions are terminated within the time-frame during which substrate incorporation is linear and varied depending upon the enzyme and conditions used, i.e., 30 min. for HCMV polymerase. Ten (10) μl of streptavidin-SPA beads (20 mg/ml in PBS/10% glycerol) are added following termination of the reaction. Plates are incubated 10 min. at 37° C., then equilibrated to room temperature, and counted on a Packard Topcount. Linear regressions are performed and IC50's are calculated using computer software.
A modified version of the above HCMV polymerase assay is performed as described above, but with the following changes: Compounds are diluted in 100% DMSO until final dilution into assay buffer. In the previous assay, compounds are diluted in 50% DMSO. 4.5 mM Dithiothreitol (DTT) is added to the polymerase buffer.
All results are listed as Polymerase IC50 ([…]) values. In Table 1, the term “n.d.” refers to activity data not determined.
Background: SPA uses beads or plates that emit light when radiolabelled molecules are held near them.

The target in the next data set is HSV polymerase (Human herpesvirus 1, UniProt P04293). The experiment in a line: HSV polymerase assay (Table 1). The class given is biochemical. The settings on record: HSV polymerase; read-out: Polymerase IC50 HSV.
Chain of HSV polymerase (P04293 whole entry): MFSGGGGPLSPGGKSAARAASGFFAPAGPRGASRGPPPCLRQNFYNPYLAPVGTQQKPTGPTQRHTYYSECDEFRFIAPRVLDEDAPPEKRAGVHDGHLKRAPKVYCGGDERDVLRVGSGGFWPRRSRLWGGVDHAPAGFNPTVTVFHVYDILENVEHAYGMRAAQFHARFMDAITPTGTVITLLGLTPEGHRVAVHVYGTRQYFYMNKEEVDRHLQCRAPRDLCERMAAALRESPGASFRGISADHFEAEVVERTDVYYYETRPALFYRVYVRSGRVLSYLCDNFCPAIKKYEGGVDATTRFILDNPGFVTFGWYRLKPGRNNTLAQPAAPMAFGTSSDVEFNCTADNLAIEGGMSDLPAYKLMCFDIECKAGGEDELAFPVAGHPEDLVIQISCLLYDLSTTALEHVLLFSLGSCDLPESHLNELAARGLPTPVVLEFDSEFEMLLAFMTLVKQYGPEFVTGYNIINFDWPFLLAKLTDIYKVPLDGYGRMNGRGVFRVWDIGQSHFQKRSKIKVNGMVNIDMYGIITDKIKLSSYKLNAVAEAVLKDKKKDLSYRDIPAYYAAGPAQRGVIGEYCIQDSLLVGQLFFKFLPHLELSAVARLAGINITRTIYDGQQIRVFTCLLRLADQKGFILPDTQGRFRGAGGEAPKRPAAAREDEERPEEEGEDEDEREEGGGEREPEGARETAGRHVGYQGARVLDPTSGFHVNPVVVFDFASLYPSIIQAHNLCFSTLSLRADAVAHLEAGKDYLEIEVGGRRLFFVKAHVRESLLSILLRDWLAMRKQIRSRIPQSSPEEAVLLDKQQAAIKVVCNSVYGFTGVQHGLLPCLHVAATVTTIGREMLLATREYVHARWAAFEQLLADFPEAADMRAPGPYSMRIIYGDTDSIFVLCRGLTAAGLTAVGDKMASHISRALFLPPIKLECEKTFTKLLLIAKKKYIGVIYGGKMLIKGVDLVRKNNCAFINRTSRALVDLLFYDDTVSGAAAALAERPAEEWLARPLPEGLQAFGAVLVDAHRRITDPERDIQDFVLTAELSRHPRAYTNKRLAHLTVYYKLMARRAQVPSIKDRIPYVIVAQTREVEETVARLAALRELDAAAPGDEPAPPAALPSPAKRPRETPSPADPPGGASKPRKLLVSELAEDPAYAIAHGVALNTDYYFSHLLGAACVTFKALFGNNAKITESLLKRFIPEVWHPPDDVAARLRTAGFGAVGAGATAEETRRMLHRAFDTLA
The mark [1] stands for this setting: HCMV polymerase, SPA, read-out: Polymerase IC50 HCMV.

This note sets out measurements from patent US20050049245A1, “Heteroaryl-ethanolamine derivatives as antiviral agents” (priority 2002, published 2005).

pIC50: −log10 of the molar value. Like-named read-outs stand apart in the source and are kept apart here.

The term pIC50 denotes the IC50 on a negative log10 scale, so that one unit is a factor of ten. By melting point is commonly meant the temperature of the solid-liquid transition.

Chain of VZV polymerase (P09252 whole entry): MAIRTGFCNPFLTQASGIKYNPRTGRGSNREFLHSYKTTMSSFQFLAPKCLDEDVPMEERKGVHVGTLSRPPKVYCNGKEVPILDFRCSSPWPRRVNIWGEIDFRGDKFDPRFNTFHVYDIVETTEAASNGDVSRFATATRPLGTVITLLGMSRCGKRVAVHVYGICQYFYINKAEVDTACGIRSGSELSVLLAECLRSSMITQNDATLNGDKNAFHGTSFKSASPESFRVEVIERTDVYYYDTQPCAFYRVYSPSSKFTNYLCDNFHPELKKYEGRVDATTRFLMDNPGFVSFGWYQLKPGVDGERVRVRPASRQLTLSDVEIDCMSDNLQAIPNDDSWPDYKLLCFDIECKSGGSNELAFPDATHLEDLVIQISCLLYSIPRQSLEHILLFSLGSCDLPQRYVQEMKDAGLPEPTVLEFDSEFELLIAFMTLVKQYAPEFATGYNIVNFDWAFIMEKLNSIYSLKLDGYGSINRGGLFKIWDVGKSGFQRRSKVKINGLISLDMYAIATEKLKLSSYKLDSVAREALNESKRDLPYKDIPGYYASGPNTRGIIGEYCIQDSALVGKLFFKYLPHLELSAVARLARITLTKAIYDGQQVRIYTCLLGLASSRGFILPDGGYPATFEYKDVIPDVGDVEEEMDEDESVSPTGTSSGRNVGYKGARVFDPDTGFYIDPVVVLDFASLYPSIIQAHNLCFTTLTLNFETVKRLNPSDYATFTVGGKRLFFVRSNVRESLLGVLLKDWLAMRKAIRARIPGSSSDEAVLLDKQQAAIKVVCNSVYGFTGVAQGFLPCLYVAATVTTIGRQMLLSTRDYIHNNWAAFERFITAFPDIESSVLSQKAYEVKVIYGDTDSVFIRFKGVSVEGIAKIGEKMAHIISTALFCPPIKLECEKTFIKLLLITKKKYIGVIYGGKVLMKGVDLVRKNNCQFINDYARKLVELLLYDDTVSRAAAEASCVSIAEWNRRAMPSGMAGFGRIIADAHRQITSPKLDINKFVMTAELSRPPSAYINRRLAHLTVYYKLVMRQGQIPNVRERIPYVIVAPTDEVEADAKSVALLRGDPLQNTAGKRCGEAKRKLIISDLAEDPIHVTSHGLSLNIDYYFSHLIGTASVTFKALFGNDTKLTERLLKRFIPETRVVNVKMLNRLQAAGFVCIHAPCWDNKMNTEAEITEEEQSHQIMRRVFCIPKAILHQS
T1 sequence (P08546 whole entry): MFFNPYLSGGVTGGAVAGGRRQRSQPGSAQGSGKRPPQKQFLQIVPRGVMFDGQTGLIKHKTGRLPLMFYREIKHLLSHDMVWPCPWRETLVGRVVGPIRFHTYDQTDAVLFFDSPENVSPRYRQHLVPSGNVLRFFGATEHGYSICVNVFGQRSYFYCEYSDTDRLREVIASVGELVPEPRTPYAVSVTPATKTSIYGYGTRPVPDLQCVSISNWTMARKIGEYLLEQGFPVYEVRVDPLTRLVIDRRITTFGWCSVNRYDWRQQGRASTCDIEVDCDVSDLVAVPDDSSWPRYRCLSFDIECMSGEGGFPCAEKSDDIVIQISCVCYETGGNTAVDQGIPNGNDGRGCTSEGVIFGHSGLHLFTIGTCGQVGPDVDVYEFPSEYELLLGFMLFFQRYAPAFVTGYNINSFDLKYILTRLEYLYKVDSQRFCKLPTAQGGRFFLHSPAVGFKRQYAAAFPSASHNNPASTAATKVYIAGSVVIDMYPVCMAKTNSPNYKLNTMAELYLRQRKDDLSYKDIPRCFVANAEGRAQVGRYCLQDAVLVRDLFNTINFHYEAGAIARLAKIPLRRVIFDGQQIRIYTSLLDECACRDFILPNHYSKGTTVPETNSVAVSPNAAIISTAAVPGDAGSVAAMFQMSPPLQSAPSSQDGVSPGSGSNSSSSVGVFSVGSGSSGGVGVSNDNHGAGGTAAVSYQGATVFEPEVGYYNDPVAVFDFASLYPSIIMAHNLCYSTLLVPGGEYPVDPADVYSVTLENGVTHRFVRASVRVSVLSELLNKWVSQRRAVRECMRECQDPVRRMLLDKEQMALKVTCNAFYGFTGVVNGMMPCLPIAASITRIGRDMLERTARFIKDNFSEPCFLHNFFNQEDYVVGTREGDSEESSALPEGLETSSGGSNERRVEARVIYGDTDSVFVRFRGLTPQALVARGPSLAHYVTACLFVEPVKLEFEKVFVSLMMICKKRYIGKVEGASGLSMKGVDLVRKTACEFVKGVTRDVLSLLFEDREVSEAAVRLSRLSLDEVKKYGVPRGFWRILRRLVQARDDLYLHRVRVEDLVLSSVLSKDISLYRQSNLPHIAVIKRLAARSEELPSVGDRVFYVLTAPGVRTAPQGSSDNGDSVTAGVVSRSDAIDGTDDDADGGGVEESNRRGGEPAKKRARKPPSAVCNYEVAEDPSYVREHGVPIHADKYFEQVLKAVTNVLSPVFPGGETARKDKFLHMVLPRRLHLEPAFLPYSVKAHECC

As to `CN(Cc1cc2c(=O)c(C(=O)NCc3ccc(Cl)cc3)cn(C)c2s1)CC(O)c1cccn1C` (racemic) [Example 8, rac-N-(4-Chlorobenzyl)-2-(((2-hydroxy-2-(1-methyl-1H-pyrrol-2-yl)ethyl)-(methyl)amino)methyl)-7-methyl-4-oxo-4,7-dihydrothieno[2,3-b]pyridine-5-carboxamide], the melting point lay in the range of 140 to 145 °C. In addition, the pIC50 at VZV polymerase is 6.49. For the same molecule, the negative logarithm of the IC50 (pIC50) on HCMV polymerase (setting [1]) is 6.59. Also, on HSV polymerase, the pIC50 was 6.07.

`CN(Cc1cc2c(=O)c(C(=O)NCc3ccc(Cl)cc3)cn(C)c2s1)CC(O)c1c[nH]cn1` (racemic) [Example 10, rac-N-(4-Chlorobenzyl)-2-(((2-hydroxy-2-(1H-imidazol-4-yl)ethyl)(methyl)amino)methyl)-7-methyl-4-oxo-4,7-dihydrothieno[2,3-b]pyridine-5-carboxamide]: the melting point fell in the range of 164 to 169 °C. Besides, the pIC50 on VZV polymerase was 6.36. In addition, the pIC50 on HCMV polymerase (setting [1]) is 6.35. Further, the negative-log IC50 (pIC50) at HSV polymerase is 5.71.

Molecule `CN(Cc1cc2c(=O)c(C(=O)NCc3ccc(Cl)cc3)cn(C)c2s1)CC(O)c1c[nH]c2ccccc12` (racemic) [Example 11, rac-N-(4-Chlorobenzyl)-2-(((2-hydroxy-2-(1H-indol-3-yl)ethyl)(methyl)amino)-methyl)-7-methyl-4-oxo-4,7-dihydrothieno[2,3-b]pyridine-5-carboxamide] had a melting point of 120 to 123 °C. Also, the pIC50 at VZV polymerase was 7.05. Moreover, at HCMV polymerase (setting [1]), the pIC50 is 7.05. For the same molecule, the pIC50 at HSV polymerase was 6.70.

`CN(Cc1cc2c(=O)c(C(=O)NCc3ccc(Cl)cc3)cn(C)c2s1)CC(O)c1csc2ccccc12` (racemic) [Example 13, rac-2-(((2-(1-Benzothien-3-yl)-2-hydroxyethyl)(methyl)amino)methyl)-N-(4-chlorobenzyl)-7-methyl-4-oxo-4,7-dihydrothieno[2,3-b]pyridine-5-carboxamide]: the melting point was 213 to 219 °C (dec.). For the same molecule, the negative-log IC50 (pIC50) at VZV polymerase was 6.36. Further, the pIC50 at HCMV polymerase (setting [1]) was 6.77. Also, the pIC50 at HSV polymerase was 5.72.

Regarding `CN(Cc1cc2c(=O)c(C(=O)NCc3ccc(Cl)cc3)cn(C)c2s1)CC(O)c1cc2ccccc2n1C` (racemic) [Example 14, rac-N-(4-Chlorobenzyl)-2-(((2-hydroxy-2-(1-methyl-1H-indol-2-yl)ethyl)(methyl)-amino)methyl)-7-methyl-4-oxo-4,7-dihydrothieno[2,3-b]pyridine-5-carboxamide], the melting point is 128 to 132 °C (dec.). The pIC50 at VZV polymerase is 6.92. The pIC50 on HCMV polymerase (setting [1]) is 7.00. Moreover, on HSV polymerase, the pIC50 is 6.28.

Regarding `CN(Cc1cc2c(=O)c(C(=O)NCc3ccc(Cl)cc3)cn(C)c2s1)CC(O)c1nccs1` (racemic) [Example 16, rac-N-(4-Chlorobenzyl)-2-(((2-hydroxy-2-(1,3-thiazol-2-yl)ethyl)(methyl)amino)-methyl)-7-methyl-4-oxo-4,7-dihydrothieno[2,3-b]pyridine-5-carboxamide], the melting point was in the range of 129 to 133 °C. For the same molecule, the pIC50 on VZV polymerase is 6.72. In addition, the pIC50 against HCMV polymerase is 6.70. The pIC50 at HSV polymerase was 6.35.

`CN(Cc1cc2c(=O)c(C(=O)NCc3ccc(Cl)cc3)cn(C)c2s1)CC(O)c1ccn[nH]1` (racemic) [Example 18, rac-N-(4-Chlorobenzyl)-2-(((2-hydroxy-2-(1H-pyrazol-5-yl)ethyl)(methyl)amino)-methyl)-7-methyl-4-oxo-4,7-dihydrothieno[2,3-b]pyridine-5-carboxamide] registered a melting point of 177.5 to 178.6 °C. Besides, the pIC50 at VZV polymerase was 6.43. Further, the pIC50 at HCMV polymerase (setting [1]) is 6.46. Further, the pIC50 on HSV polymerase was 6.04.

Regarding `Cc1cc(C(O)CN(C)Cc2cc3c(=O)c(C(=O)NCc4ccc(Cl)cc4)cn(C)c3s2)oc1C` (racemic) [Example 30, rac-N-(4-Chlorobenzyl)-2-(((2-(4,5-dimethyl-2-furyl)-2-hydroxyethyl)(methyl)-amino)methyl)-7-methyl-4-oxo-4,7-dihydrothieno[2,3-b]pyridine-5-carboxamide], the melting point was in the range of 166 to 167 °C. At VZV polymerase, the negative logarithm of the IC50 (pIC50) was 6.70. Besides, on HCMV polymerase (setting [1]), the pIC50 was 6.85. For the same molecule, the pIC50 on HSV polymerase was 6.21.

In the case of `CN(Cc1cc2c(=O)c(C(=O)NCc3ccc(Cl)cc3)cn(C)c2s1)CC(O)c1ccc(-c2ccccc2)o1` (racemic) [Example 31, rac-N-(4-Chlorobenzyl)-2-(((2-(5-phenyl-2-furyl)-2-hydroxyethyl)(methyl)-amino)methyl)-7-methyl-4-oxo-4,7-dihydrothieno[2,3-b]pyridine-5-carboxamide], the melting point lay within 177 to 178 °C. The pIC50 on VZV polymerase is 7.22. Besides, the pIC50 at HCMV polymerase (setting [1]) was 7.15. Moreover, the pIC50 on HSV polymerase was 6.92.

In turn, `CCn1cc(C(=O)NCc2ccc(Cl)cc2)c(=O)c2cc(CN(C)C[C@@H](O)c3ccco3)sc21` [Example 20, N-(4-Chlorobenzyl)-7-ethyl-2-((((2R)-2-(2-furyl)-2-hydroxyethyl)(methyl)amino)-methyl)-4-oxo-4,7-dihydrothieno [2,3-b]pyridine-5-carboxamide] had a melting point of 123 to 127 °C. Besides, the pIC50 on VZV polymerase was 6.70. Also, the pIC50 on HCMV polymerase (setting [1]) is 6.66. In addition, the pIC50 on HSV polymerase is 6.34.
